IC50 data for 27 molecules are collected here from US8008291B2 (Mimetica Pty Ltd, priority 2008, dated 2011).

Molecules are shown by their SMILES.

T1 sequence (P33032 whole entry): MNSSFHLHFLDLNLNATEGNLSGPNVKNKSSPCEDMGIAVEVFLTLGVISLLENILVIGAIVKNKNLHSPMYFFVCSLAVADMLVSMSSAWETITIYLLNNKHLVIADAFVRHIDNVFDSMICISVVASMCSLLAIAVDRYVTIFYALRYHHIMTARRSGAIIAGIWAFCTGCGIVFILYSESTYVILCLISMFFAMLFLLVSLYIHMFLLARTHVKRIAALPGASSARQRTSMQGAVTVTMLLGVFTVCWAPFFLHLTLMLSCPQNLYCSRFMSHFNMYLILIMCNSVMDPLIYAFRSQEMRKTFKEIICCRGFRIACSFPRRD

This assay addresses T1, human MC5R (hMC5R) (Homo sapiens, UniProt P33032).
T1 construct: purchased Perkin Elmer RBXMC5M400UA
Kind of assay: Human MC5R radioligand binding assay (membranes, [125I] NDP-MSH displacement). Conditions: hMC5R binding; tested as trifluoroacetate or hydrochloride salts, or free bases; read-out: MC5R radioligand IC50. On the procedure:
Assessments of compound binding to human MC5R (hMC5R) ) by displacement of an ^125I-labeled NDP-MSH receptor ligand peptide were performed essentially as described in the data sheets produced by Perkin Elmer to accompany their frozen hMC5R membranes (Perkin Elmer catalog number RBXMC5M400UA).
[^125I] NDP-MSH: radiolabeled in house and purified by HPLC:
• Na^125I (0.5 mCi, 17.4 Ci/mg) was added to 50 μL sodium phosphate (50 mM, pH7.4) in an eppendorf tube precoated with IODOGEN. After incubation for 10 mins the phosphate buffer containing the iodine was added to NDP-MSH (10 ul at 1 mg/mL) in a separate eppendorf tube. This was incubated for a further 10 mins. The iodinated NDP-MSH was purified by HPLC on a Zorbax SB 300 column using solvent A: 0.05% TFA and solvent B: 90% acetonitrile 0.045% TFA with a linear gradient, 0-67% B over 60 mins. […] Resuspended membranes were kept on ice until they were added to the wells of the plate. Binding Protocol for 400 microassays per vial: • Assays were performed in 96 well polypropylene plates. […] This was incubated for 1 hr at 37° C.
What is called IC50 is the midpoint of a concentration-inhibition curve. With `NCCC[C@@H]1N[C@H](CNC(=O)c2ccc3ccccc3c2)CCN(Cc2c(Cl)cccc2Cl)C1=O` [Compound 315, N-(((3S,5S)-3-(3-aminopropyl)-1-(2,6-dichlorobenzyl)-2-oxo-1,4-diazepan-5-yl)methyl)-2-naphthamide], the IC50 was below 10000 nM.
Consider `N=C(N)NCCC[C@@H]1N[C@H](CNC(=O)c2ccc3ccccc3c2)CCN(C[C@H](NC(=O)c2ccccc2)c2ccccc2)C1=O` [Compound 288, N-(((3S,5S)-1-((R)-2-benzamido-2-phenylethyl)-3-(3-guanidinopropyl)-2-oxo-1,4-diazepan-5-yl)methyl)-2-naphthamide], for which the concentration for half-maximal inhibition (IC50) was below 10000 nM.
As for `CCCOC(CN1CC[C@@H](CNC(=O)c2ccc3ccccc3c2)N[C@@H](CCCNC(=N)N)C1=O)c1ccccc1` (stereo partly drawn) [Compound 290, N-(((3S,5S)-3-(3-guanidinopropyl)-2-oxo-1-(2-phenyl-2-propoxyethyl)-1,4-diazepan-5-yl)methyl)-2-naphthamide], the half-inhibitory concentration (IC50) was below 1000 nM.
The same measure for `CC(=O)N[C@H](Cc1ccc2ccccc2c1)[C@@H]1CCN(CC(c2ccccc2)c2ccccc2)C(=O)[C@H](CCCNC(=N)N)N1` [Compound 85, N—((R)-1-((3S,5S)-1-(2,2-diphenylethyl)-3-(3-guanidinopropyl)-2-oxo-1,4-diazepan-5-yl)-2-(naphthalen-2-yl)ethyl)acetamide]: below 10000 nM; for `CC(C)[C@@H](CN1CC[C@@H](CNC(=O)c2ccc3ccccc3c2)N[C@@H](CCN2CCCCC2)C1=O)c1ccccc1` [Compound 394, N-(((3S,5S)-1-((R)-3-methyl-2-phenylbutyl)-2-oxo-3-(2-(piperidin-1-yl)ethyl)-1,4-diazepan-5-yl)methyl)-2-naphthamide]: below 1000 nM.
In the case of `CC[C@H](CN1CC[C@@H](CNC(=O)/C=C/c2ccc(Cl)cc2)N[C@@H](CCN2CCCCC2)C1=O)c1ccccc1` [Compound 365, (E)-3-(4-chlorophenyl)-N-(((3S,5S)-2-oxo-1-((S)-2-phenylbutyl)-3-(2-(piperidin-1-yl)ethyl)-1,4-diazepan-5-yl)methyl)acrylamide], the concentration for half-maximal inhibition (IC50) was below 10 nM.
Regarding `N=C(N)NCCC[C@@H]1N[C@H](CNC(=O)C2CC2c2ccccc2)CCN(CC(c2ccccc2)c2ccccc2)C1=O` (stereo partly drawn) [Compound 174, N-(((3S,5S)-1-(2,2-diphenylethyl)-3-(3-guanidinopropyl)-2-oxo-1,4-diazepan-5-yl)methyl)-2-phenylcyclopropanecarboxamide], the half-inhibitory concentration (IC50) was below 1000 nM.
As for `CC[C@@H](CN1CC[C@@H](CNC(=O)c2ccc3cc(Cl)ccc3c2)N[C@@H](CCN2CCCCC2)C1=O)C(C)C` [Compound 471, 6-chloro-N-(((3S,5S)-1-((R)-2-ethyl-3-methylbutyl)-2-oxo-3-(2-(piperidin-1-yl)ethyl)-1,4-diazepan-5-yl)methyl)-2-naphthamide], the 50% inhibitory concentration (IC50) was below 100 nM.
As to `N=C(N)NCCC[C@@H]1N[C@H](CNC(=O)c2ccc3ccccc3c2)CCN(Cc2ccc3ccccc3c2)C1=O` [Compound 251, N-(((3S,5S)-3-(3-guanidinopropyl)-1-(naphthalen-2-ylmethyl)-2-oxo-1,4-diazepan-5-yl)methyl)-2-naphthamide], the 50% inhibitory concentration (IC50) is below 10000 nM.
The same measure for `CC[C@H](CN1CC[C@@H](CNC(=O)c2ccc3cc(Cl)ccc3c2)N[C@@H](CC(C)(C)N)C1=O)c1ccccc1` [Compound 463, N-(((3S,5S)-3-(2-amino-2-methylpropyl)-2-oxo-1-((S)-2-phenylbutyl)-1,4-diazepan-5-yl)methyl)-6-chloro-2-naphthamide]: below 1000 nM; for `CC1CC(C)CC(CN2CC[C@@H](CNC(=O)c3ccc4ccccc4c3)N[C@@H](CCCNC(=N)N)C2=O)C1` (stereo partly drawn) [Compound 298, N-(((3S,5S)-1-((3,5-dimethylcyclohexyl)methyl)-3-(3-guanidinopropyl)-2-oxo-1,4-diazepan-5-yl)methyl)-2-naphthamide]: below 100 nM.
As for `CC[C@H](CN1CC[C@@H](CNC(=O)c2ccc(Cl)c(Cl)c2)N[C@@H](CCN(C)c2ccccc2)C1=O)c1ccccc1` [Compound 425, 3,4-dichloro-N-(((3S,5S)-3-(2-(methyl(phenyl)amino)ethyl)-2-oxo-1-((S)-2-phenylbutyl)-1,4-diazepan-5-yl)methyl)benzamide], the half-maximal inhibitory concentration (IC50) was below 1000 nM.
Consider `N=C(N)NCCC[C@@H]1N[C@H](CNC(=O)c2ccc3ccccc3c2)CCN(CC(C(=O)N2CCCCC2)c2ccccc2)C1=O` (stereo partly drawn) [Compound 343, N-(((3S,5S)-3-(3-guanidinopropyl)-2-oxo-1-(3-oxo-2-phenyl-3-(piperidin-1-yl)propyl)-1,4-diazepan-5-yl)methyl)-2-naphthamide], for which the 50% inhibitory concentration (IC50) was below 10000 nM.
As to `N=C(N)NCCC[C@@H]1N[C@H](CNC(=O)c2ccc3ccccc3c2)CCN(c2ccc3ccccc3c2)C1=O` [Compound 226, N-(((3S,5S)-3-(3-guanidinopropyl)-1-(naphthalen-2-yl)-2-oxo-1,4-diazepan-5-yl)methyl)-2-naphthamide], the IC50 was below 10000 nM.
Turning to `CC(C)NCC[C@@H]1N[C@H](CNC(=O)c2ccc(Cl)c(Cl)c2)CCN(Cc2cc(Cl)cc(Cl)c2)C1=O` [Compound 439, 3,4-dichloro-N-(((3S,5S)-1-(3,5-dichlorobenzyl)-3-(2-(isopropylamino)ethyl)-2-oxo-1,4-diazepan-5-yl)methyl)benzamide], the IC50 was below 100 nM.
The same measure for `CC[C@H](CN1CC[C@@H](CNC(=O)c2ccc(Cl)c(Cl)c2)N[C@@H](CCN2CCNCC2)C1=O)c1ccccc1` [Compound 443, 3,4-dichloro-N-(((3S,5S)-2-oxo-1-((S)-2-phenylbutyl)-3-(2-(piperazin-1-yl)ethyl)-1,4-diazepan-5-yl)methyl)benzamide]: below 100 nM; for `O=C(NC[C@@H]1CCN(Cc2ccc(Cl)cc2Cl)C(=O)[C@H](CCN2CCCCC2)N1)c1ccc2cc(Cl)ccc2c1` [Compound 508, 6-chloro-N-(((3S,5S)-1-(2,4-dichlorobenzyl)-2-oxo-3-(2-(piperidin-1-yl)ethyl)-1,4-diazepan-5-yl)methyl)-2-naphthamide]: below 100 nM; for `CC[C@H](CN1CC[C@@H](CNC(=O)c2ccc3cc(Cl)ccc3c2)N[C@@H](CCNC(=O)NC(C)C)C1=O)c1ccccc1` [Compound 494, 6-chloro-N-(((3S,5S)-3-(2-(3-isopropylureido)ethyl)-2-oxo-1-((S)-2-phenylbutyl)-1,4-diazepan-5-yl)methyl)-2-naphthamide]: below 1000 nM.
Next, `CC(=O)N[C@@H](Cc1ccc2ccccc2c1)[C@@H]1CCN(CC(c2ccccc2)c2ccccc2)C(=O)[C@H](CCCNC(=N)N)N1` [Compound 79, N-((S)-1-((3S,5S)-1-(2,2-diphenylethyl)-3-(3-guanidinopropyl)-2-oxo-1,4-diazepan-5-yl)-2-(naphthalen-2-yl)ethyl)acetamide]: below 10000 nM; `CCC(C)(CC)CN1CC[C@@H](CNC(=O)c2ccc3cc(Cl)ccc3c2)N[C@@H](CCN)C1=O` [Compound 512, N-(((3S,5S)-3-(2-aminoethyl)-1-(2-ethyl-2-methylbutyl)-2-oxo-1,4-diazepan-5-yl)methyl)-6-chloro-2-naphthamide]: below 1000 nM.
The same measure for `O=C(NC[C@@H]1CCN(CC(c2ccccc2)c2ccccc2)C(=O)[C@H](CCN2CCCCC2)N1)c1cccc(C(F)(F)F)c1` [Compound 436, N-(((3S,5S)-1-(2,2-diphenylethyl)-2-oxo-3-(2-(piperidin-1-yl)ethyl)-1,4-diazepan-5-yl)methyl)-3-(trifluoromethyl)benzamide]: below 1000 nM; for `NCC[C@@H]1N[C@H](CNC(=O)/C=C/c2ccc(F)cc2F)CCN(CC(c2ccccc2)c2ccccc2)C1=O` [Compound 401, (E)-N-(((3S,5S)-3-(2-aminoethyl)-1-(2,2-diphenylethyl)-2-oxo-1,4-diazepan-5-yl)methyl)-3-(2,4-difluorophenyl)acrylamide]: below 1000 nM; for `CCCCC(CC)C(=O)NC[C@@H]1CCN(CC(c2ccccc2)c2ccccc2)C(=O)[C@H](CCCN)N1` (stereo partly drawn) [Compound 221, N-(((3S,5S)-3-(3-aminopropyl)-1-(2,2-diphenylethyl)-2-oxo-1,4-diazepan-5-yl)methyl)-2-ethylhexanamide]: below 10000 nM.
For `CC[C@H](CN1CCC(CNC(=O)c2ccc3cc(Cl)ccc3c2)NC(C2CCNCC2)C1=O)c1ccccc1` (stereo partly drawn) [Compound 447, (S)-6-chloro-N-((2-oxo-1-(2-phenylbutyl)-3-(piperidin-4-yl)-1,4-diazepan-5-yl)methyl)-2-naphthamide], the IC50 is below 100 nM.
Consider `C=CCOC(CN1CC[C@@H](CNC(=O)c2ccc3ccccc3c2)N[C@@H](CCCNC(=N)N)C1=O)c1ccccc1` (stereo partly drawn) [Compound 292, N-(((3S,5S)-1-(2-(allyloxy)-2-phenylethyl)-3-(3-guanidinopropyl)-2-oxo-1,4-diazepan-5-yl)methyl)-2-naphthamide], for which the IC50 was below 1000 nM.
On to `CCC(CC)CN1CC[C@@H](CNC(=O)c2ccc3cc(F)ccc3c2)N[C@@H](CCN)C1=O` [Compound 369, N-(((3S,5S)-3-(2-aminoethyl)-1-(2-ethylbutyl)-2-oxo-1,4-diazepan-5-yl)methyl)-6-fluoro-2-naphthamide], for which the IC50 is below 1000 nM.
Take `O=C(NC[C@@H]1CCN(CC(c2ccccc2)c2ccccc2)C(=O)[C@H](CCN2CCCCC2)N1)OCc1ccccc1` [Compound 412, benzyl ((3S,5S)-1-(2,2-diphenylethyl)-2-oxo-3-(2-(piperidin-1-yl)ethyl)-1,4-diazepan-5-yl)methylcarbamate]: the half-inhibitory concentration (IC50) is below 1000 nM.
